Molecular target: TPI (triosephosphate isomerase), recombinant
Assay: isothermal titration calorimetry
Assay type: binding
Conditions: 100 μM TPI, 1 mM palmitic amide; DMSO control

- Kd: 4.89 ± 1.23 µM
Structure (SMILES): CCCCCCCCCCCCCCCC(N)=O [palmitic amide]
